Series [1] in a line: Particle size, polydispersity and zeta potential measurement (DLS, ELS). It is filed as physicochemical. On the procedure:
6.6 Particle Size and Zeta Potential Measurement for pDNA, mRNA, siRNA, Cas9 mRNA/sgRNA and Cas9 mRNA/sgRNA/ssDNA Polyplexes as Well as mRNA LNPs
Measurements of size and zeta potential were performed with a Zetasizer Nano ZS (Malvern Instruments, Malvern, Worcestershire, U.K.) in a folded capillary cell (DTS1070) by dynamic and electrophoretic laser-light scattering (DLS, ELS). […] Samples were measured three times with six sub runs per measurement. For measurement of the zeta potential, all samples were diluted to 800 μL with HBG or HEPES (for siRNA polyplexes) directly before measurement. Parameters were identical to the size measurement apart from an equilibration time of 60 sec. Three measurements with 15 sub runs lasting 10 sec each were performed, and zeta potentials were calculated by the Smuchowski equation.

Series [2] has as its system N2a/eGFPLuc, KB/eGFPLuc, and CT26/eGFPLuc. Kind of series: Gene silencing activity of siRNA LNPs in three cell lines. The conditions noted are these: N/P 9, 63 and 31 ng siRNA/well, 48 h. Type of series: cell-based.
Another series relates to Huh7 cells. The series is described as follows: Luciferase gene expression of mRNA LNPs in Huh7 cells. It is filed as cell-based, human. The conditions noted are these: 62.5 ng mRNA/well, N/P 9.
A further series concerns HeLa cells. Kind of series: CellTiterGlo assay (relative metabolic activity). It is filed as cell-based. As to conditions: pDNA polyplexes 200 ng/well, 24 h, vs non-reducible analogs. On the procedure:
HeLa cells were seeded 24 h prior to transfection (5000 cells/well) in 96-well plates. Immediately prior to transfection, the medium was replaced with suitable amounts of fresh medium containing 10% (v/v) FBS to reach a final volume of 100 μL during transfection. The nanoparticles were prepared as described in section 6.1 and transfected with indicated doses. The medium was removed at 24 h after transfection, and 25 μL of fresh, pre-warmed medium as well as 25 μL of CellTiterGlo® Reagent (Promega, Mannheim, Germany) were added to each well [S. Berger et al., Biomacromolecules 2021, 22, 1282; A. Krhač Levačić et al., J Controlled Release 2021, 339, 27]. After incubation on an orbital shaker for 30 min at RT, luminescence was recorded using a Centro LB 960 plate reader luminometer (Berthold Technologies, Bad Wildbad, Germany). The luminescent signals (in RLU) of the samples were normalized to the luminescent signal of the negative control (HBG buffer-treated control cells). Results were presented as relative metabolic activity related to the negative control. Experiments were performed as triplicates.
Background: In ATP-based viability assays light output follows the ATP content of the culture.

[3] abbreviates: siRNA LNPs, siCtrl 25 μg/mL, N/P 9.
Setting [4] is: mRNA LNPs, 12.5 μg/mL CleanCap FLuc mRNA (5moU), N/P 9, molar ratios see Table A.

As for K[K(10Oc)2]2-Stp [compound 1762], in series [1] (setting [3]), the Pdl is given as 0.104, the Z-average came out at 244.3 nm and the Zeta potential was −3.2 mV. For the same compound, in series [2], the “gene silencing (eGFP silencing) of siRNA LNPs” value is reported as “approximately the same potential for eGFP silencing”.

K[K(14He)2]2-Stp [compound 1755]: in series [1] (setting [4]), the Pdl amounted to 0.220, the Z-average was 149.6 nm and the Zeta potential turned out to be 2.26 mV. For the same compound, in series [1] (setting [3]), the Pdl worked out at 0.287, the Z-average is 160.6 nm and the Zeta potential was found to be 3.4 mV. Besides, in the series with Huh7 cells, the “luciferase expression of mRNA LNPs relative to SM-102” value came out at 2 fold.

For the compound K[K(12He)2]2-Stp [compound 1754], in series [1] (setting [4]), the Pdl is listed as 0.187, the Z-average is recorded as 171.0 nm and the Zeta potential is listed as 1.11 mV. Besides, in series [1] (setting [3]), the Pdl is given as 0.144, the Z-average is reported as 173.0 nm and the Zeta potential is 2.2 mV. Further, the “RLU values of mRNA LNPs relative to DLin-MC3-DMA” value in the series with Huh7 cells is 10 fold.

Take K[K(16Bu)2]2-Stp [compound 1753]: in series [1] (setting [4]), the Pdl came out at 0.227, the Z-average was 142.1 nm and the Zeta potential is recorded as 3.39 mV. In series [1] (setting [3]), the Pdl amounted to 0.292, the Z-average is given as 195.1 nm and the Zeta potential is 2.6 mV. Further, in series [2], the “gene silencing (eGFP silencing) of siRNA LNPs” value was “approximately the same potential for eGFP silencing”.

Take `CCCCCCCCN(CCCCCCCC)CCCCCCCC(=O)NCCCC[C@H](NC(=O)CCCCCCCN(CCCCCCCC)CCCCCCCC)C(=O)NCCSSCCNC(=O)CCC(=O)NCCCC[C@H](NC(=O)CCC(=O)NCCSSCCNC(=O)[C@H](CCCCNC(=O)CCCCCCCN(CCCCCCCC)CCCCCCCC)NC(=O)CCCCCCCN(CCCCCCCC)CCCCCCCC)C(=O)NCCNCCNCCNCCNC(=O)CCC(=O)NCCNCCNCCNCCNC(=O)CCC(=O)O` [compound 1824, [(8Oc)2)-K-ssbb]2-K-Stp2]: in the series on HeLa cells, the “toxicity (relative metabolic activity, CellTiter Glo)” value was “significantly less toxic”.

Regarding `CCCCCCCCCCCCN(CCCCCCCCCCCC)CCCCCCCC(=O)NCCSSCCNC(=O)CCC(=O)NCCCC[C@H](NC(=O)CCC(=O)NCCNCCNCCNCCNC(=O)[C@@H](N)CCCCNC(=O)CCC(=O)NCCSSCCNC(=O)CCCCCCCN(CCCCCCCCCCCC)CCCCCCCCCCCC)C(=O)O` [compound 1821, K(ssbb-12Oc)-Stp-K(ssbb-12Oc)], the “toxicity (relative metabolic activity, CellTiter Glo)” value in the series with HeLa cells is on record as “significantly less toxic”.
